We go through one molecule from patent US6878748B2, “Fluorinated cycloalkyl-derivatized benzoylguanidines, process for their preparation, their uses as medicament, and medicament containing them” (Aventis Pharma Deutschland GmbH, priority 2002, dated 2005).

Broadly, the IC50 is the point on the concentration scale where inhibition reaches its midpoint. Broadly, the melting point is the temperature of the solid-liquid transition.

For one data set, the target named is T1, human NHE-1 (Homo sapiens, UniProt P19634).
T1 construct: expressed in transfected cells; host or cells: LAP-1 cells (parental line has no endogenous NHE activity), G418 selection
In words: FLIPR assay for NHE-1 inhibition by measurement of the recovery in pHi in transfected cell lines. The conditions noted are these: transfected LAP-1 cell line expressing human NHE-1, BCECF fluorescence, read-out: NHE1 inhibition IC50. It is filed as cell-based. As to the method:
The NHE-1 inhibition was determined as follows:
FLIPR assay for determining NHE-1 inhibitors by measurement of the recovery in pHi in transfected cell lines which express human NHE-1
The assay is carried out in an FLIPR (fluorescent imaging plate reader) with black-walled 96-well microtiter plates with clear bases.
(The growth medium for the transfected cells (Iscove +10% fetal calf serum) additionally contains G418 as selection antibiotic in order to ensure the presence of the transfected sequences.)
The actual assay starts with the removal of the growth medium and addition of 100 μl of loading buffer per well (5 μM BCECF-AM [2′,7′-bis(carboxyethyl)-5-(and -6)-carboxyfluorescein, acetoxymethyl ester] in 20 mM NH4Cl, 115 mM choline chloride, 1 mM MgCl2, 1 mM CaCl2, 5 mM KCl, 20 mM HEPES, 5 mM glucose; pH 7.4 [adjusted with KOH]). The cells are then incubated at 37° C. for 20 minutes. This incubation leads to loading of the cells with the fluorescent dye whose fluorescence intensity depends on pHi, and with NH4Cl, which makes the cells slightly alkaline. [The nonfluorescent dye precursor BCECF-AM is, -as ester, membrane-permeable. The actual dye BCECF, which is not membrane-permeable, is liberated inside cells by esterases.] […]

T1 sequence (P19634 whole entry): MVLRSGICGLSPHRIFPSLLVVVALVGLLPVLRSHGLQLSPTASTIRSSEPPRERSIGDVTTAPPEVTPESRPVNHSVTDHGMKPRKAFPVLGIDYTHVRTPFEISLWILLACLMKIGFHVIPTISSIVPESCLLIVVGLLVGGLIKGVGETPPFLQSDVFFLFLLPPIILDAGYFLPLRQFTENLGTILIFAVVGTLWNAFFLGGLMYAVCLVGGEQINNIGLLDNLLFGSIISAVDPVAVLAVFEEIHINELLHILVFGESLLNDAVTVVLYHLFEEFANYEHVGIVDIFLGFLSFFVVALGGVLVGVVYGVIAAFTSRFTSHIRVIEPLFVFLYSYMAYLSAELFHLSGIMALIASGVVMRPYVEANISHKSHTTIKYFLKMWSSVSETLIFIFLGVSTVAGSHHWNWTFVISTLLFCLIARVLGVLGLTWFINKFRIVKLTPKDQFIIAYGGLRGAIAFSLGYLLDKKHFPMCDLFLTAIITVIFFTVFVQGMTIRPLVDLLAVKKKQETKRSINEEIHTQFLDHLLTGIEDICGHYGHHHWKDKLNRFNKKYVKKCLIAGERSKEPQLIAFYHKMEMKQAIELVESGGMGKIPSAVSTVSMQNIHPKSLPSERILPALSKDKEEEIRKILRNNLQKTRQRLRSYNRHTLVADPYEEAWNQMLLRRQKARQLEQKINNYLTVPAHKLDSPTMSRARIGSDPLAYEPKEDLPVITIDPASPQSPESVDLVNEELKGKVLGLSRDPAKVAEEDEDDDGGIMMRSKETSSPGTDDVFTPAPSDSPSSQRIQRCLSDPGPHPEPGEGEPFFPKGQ

Take `[H]/N=C(\N)NC(=O)c1cc(S(C)(=O)=O)c(OC2CC(F)(F)C2)cc1C` [Example 1, N-[4-(3,3-Difluorocyclobutoxy)-5-methanesulfonyl-2-methylbenzoyl]guanidine]: the melting point was 273 °C (dec.). Besides, the IC50 on human NHE-1 turned out to be 5.9 nM.
